Data as given in PubChem BioAssay AID248 (DTP/NCI, 2004).
Values joined by “and” are separate entries in the source; they are usually repeats but may differ in a detail not shown here. Equal values may be shown once. Inconclusive results and toxic doses are left out. Rule as the data show it: active = T/C of 150% or more; inactive = T/C below 125%.

System: L1210 leukemia ip in BDF1 mice, survival T/C
Assay: NCI In Vivo Anticancer Drug Screen. Data for tumor model L1210 Leukemia (intraperitoneal) in B6D2F1 (BDF1) mice
Conditions: higher = longer survival
In short: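 Mice bearing the transplanted tumor received compound or vehicle. Survival of the treated group was divided by that of the vehicle-treated control group to give the ratio.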

[1] = endpoint: mean survival time, dose: 100.0 mg/kg/injection, schedule: Q04DX003 (ip), vehicle: saline
[2] = endpoint: mean survival time, dose: 200.0 mg/kg/injection, schedule: Q04DX003 (ip), vehicle: saline
[3] = endpoint: mean survival time, dose: 400.0 mg/kg/injection, schedule: Q04DX003 (ip), vehicle: saline
[4] = endpoint: mean survival time, dose: 100.0 mg/kg/injection, schedule: Q04DX003 (ip), vehicle: other
[5] = endpoint: mean survival time, dose: 200.0 mg/kg/injection, schedule: Q04DX003 (ip), vehicle: other
[6] = endpoint: mean survival time, dose: 50.0 mg/kg/injection, schedule: Q01DX009 (ip), vehicle: Klucel (hydroxypropylcellulose) (HPC)
[7] = endpoint: mean survival time, dose: 100.0 mg/kg/injection, schedule: Q01DX009 (ip), vehicle: Klucel (hydroxypropylcellulose) (HPC)
[8] = endpoint: mean survival time, dose: 100.0 mg/kg/injection, schedule: Q04DX003 (ip), vehicle: Klucel (hydroxypropylcellulose) (HPC)
[9] = endpoint: mean survival time, dose: 200.0 mg/kg/injection, schedule: Q01DX009 (ip), vehicle: Klucel (hydroxypropylcellulose) (HPC)

Measured: T/C

Cn1cnc(N)c1/C(N)=N/O
inactive: endpoint: mean survival time, dose: 6.25 mg/kg/injection, schedule: Q01DX005 (ip), vehicle: saline 100 % of control | endpoint: mean survival time, dose: 12.5 mg/kg/injection, schedule: Q01DX005 (ip), vehicle: saline 98 % of control | endpoint: mean survival time, dose: 25.0 mg/kg/injection, schedule: Q01DX005 (ip), vehicle: saline 107 % of control | endpoint: mean survival time, dose: 50.0 mg/kg/injection, schedule: Q01DX005 (ip), vehicle: saline 91 % of control

c1cc[c]([Sn]([S]c2ccccn2)([c]2ccccc2)[c]2ccccc2)cc1
inactive: endpoint: mean survival time, dose: 6.25 mg/kg/injection, schedule: Q04DX002 (ip), vehicle: saline with Tween-80 93 % of control | endpoint: mean survival time, dose: 12.5 mg/kg/injection, schedule: Q04DX002 (ip), vehicle: saline with Tween-80 93 % of control | endpoint: mean survival time, dose: 25.0 mg/kg/injection, schedule: Q04DX002 (ip), vehicle: saline with Tween-80 108 % of control

CC1CC(=O)NN1C(=S)Nc1ccccc1 (stereo not drawn)
inactive: endpoint: mean survival time, dose: 100.0 mg/kg/injection, schedule: Q04DX003 (ip), vehicle: saline with Tween-80 102 % of control | endpoint: mean survival time, dose: 200.0 mg/kg/injection, schedule: Q04DX003 (ip), vehicle: saline with Tween-80 98 % of control | endpoint: mean survival time, dose: 400.0 mg/kg/injection, schedule: Q04DX003 (ip), vehicle: saline with Tween-80 100 % of control

O=[N+]([O-])c1ccc2cnn(CCO)c2c1
inactive: endpoint: mean survival time, dose: 100.0 mg/kg/injection, schedule: Q01DX001 (ip), vehicle: carboxymethylcellulose (CMC) 101 % of control | endpoint: mean survival time, dose: 200.0 mg/kg/injection, schedule: Q01DX001 (ip), vehicle: carboxymethylcellulose (CMC) 113 % of control | endpoint: mean survival time, dose: 400.0 mg/kg/injection, schedule: Q01DX001 (ip), vehicle: carboxymethylcellulose (CMC) 101 % of control

CCOC(=O)NC(NC(=O)OCC)C(Cl)Cl
inactive: endpoint: mean survival time, dose: 100.0 mg/kg/injection, schedule: Q01DX001 (ip), vehicle: saline 101 % of control | endpoint: mean survival time, dose: 200.0 mg/kg/injection, schedule: Q01DX001 (ip), vehicle: saline 103 % of control | endpoint: mean survival time, dose: 400.0 mg/kg/injection, schedule: Q01DX001 (ip), vehicle: saline 103 % of control

C#CC(C)(C)OCC1CO1 (stereo not drawn)
inactive: endpoint: mean survival time, dose: 25.0 mg/kg/injection, schedule: Q01DX009 (ip), vehicle: saline 93 % of control | endpoint: mean survival time, dose: 25.0 mg/kg/injection, schedule: Q04DX003 (ip), vehicle: saline 101 % of control | endpoint: mean survival time, dose: 50.0 mg/kg/injection, schedule: Q01DX009 (ip), vehicle: saline 90 % of control | endpoint: mean survival time, dose: 50.0 mg/kg/injection, schedule: Q04DX003 (ip), vehicle: saline 113 % of control | endpoint: mean survival time, dose: 100.0 mg/kg/injection, schedule: Q01DX009 (ip), vehicle: saline 102 % of control | [1] 108 % of control | endpoint: mean survival time, dose: 200.0 mg/kg/injection, schedule: Q01DX009 (ip), vehicle: saline 108 % of control | [2] 95 % of control | endpoint: mean survival time, dose: 400.0 mg/kg/injection, schedule: Q01DX009 (ip), vehicle: saline 93 % of control | [3] 106 % of control

CNC(=O)N(C(C)C)C1CCCCC1
inactive: [4] 102 % of control | [5] 96 % of control

NN(c1ccccc1)c1ccc2ccccc2c1
inactive: [6] 115 % of control | [7] 100 % of control | [8] 93 % of control | [9] 103 % of control | endpoint: mean survival time, dose: 200.0 mg/kg/injection, schedule: Q04DX003 (ip), vehicle: Klucel (hydroxypropylcellulose) (HPC) 93 % of control | endpoint: mean survival time, dose: 400.0 mg/kg/injection, schedule: Q04DX003 (ip), vehicle: Klucel (hydroxypropylcellulose) (HPC) 86 % of control

O=Cc1c(Cl)n(-c2ccccc2)c2c(C=O)cccc12
inactive: endpoint: mean survival time, dose: 25.0 mg/kg/injection, schedule: Q04DX003 (ip), vehicle: Klucel (hydroxypropylcellulose) (HPC) 97 % of control | endpoint: mean survival time, dose: 50.0 mg/kg/injection, schedule: Q04DX003 (ip), vehicle: Klucel (hydroxypropylcellulose) (HPC) 100 % of control | [8] 97 % of control

Cc1cc(C(C)(C)CC(C)(C)C)cc(O)c1O
inactive: endpoint: mean survival time, dose: 100.0 mg/kg/injection, schedule: Q01DX009 (ip), vehicle: other 94 % of control | [4] 96 % of control | endpoint: mean survival time, dose: 200.0 mg/kg/injection, schedule: Q01DX009 (ip), vehicle: other 94 % of control | [5] 93 % of control | endpoint: mean survival time, dose: 400.0 mg/kg/injection, schedule: Q01DX009 (ip), vehicle: other 94 % of control | endpoint: mean survival time, dose: 400.0 mg/kg/injection, schedule: Q04DX003 (ip), vehicle: other 91 % of control

CCC(=O)c1ccc(NC(=S)Nc2ccccc2)cc1
inactive: endpoint: mean survival time, dose: 5.0 mg/kg/injection, schedule: Q01DX009 (ip), vehicle: saline with Tween-80 104 % of control | endpoint: mean survival time, dose: 10.0 mg/kg/injection, schedule: Q01DX009 (ip), vehicle: saline with Tween-80 97 % of control | endpoint: mean survival time, dose: 20.0 mg/kg/injection, schedule: Q01DX009 (ip), vehicle: saline with Tween-80 101 % of control and 86 % of control | endpoint: mean survival time, dose: 40.0 mg/kg/injection, schedule: Q01DX009 (ip), vehicle: saline with Tween-80 95 % of control and 89 % of control | endpoint: mean survival time, dose: 80.0 mg/kg/injection, schedule: Q01DX009 (ip), vehicle: saline with Tween-80 86 % of control and 88 % of control | [1] 110 % of control | [2] 100 % of control | endpoint: mean survival time, dose: 320.0 mg/kg/injection, schedule: Q01DX009 (ip), vehicle: saline with Tween-80 87 % of control | [3] 98 % of control

Nc1nc(N)c(-c2ccc(Cl)cc2)c(CNc2ccc(/C=C/C3(CCl)OCCO3)cc2)n1
inactive: endpoint: mean survival time, dose: 100.0 mg/kg/injection, schedule: Q01DX001 (ip), vehicle: saline with Tween-80 92 % of control | endpoint: mean survival time, dose: 200.0 mg/kg/injection, schedule: Q01DX001 (ip), vehicle: saline with Tween-80 100 % of control | endpoint: mean survival time, dose: 400.0 mg/kg/injection, schedule: Q01DX001 (ip), vehicle: saline with Tween-80 96 % of control

CC[C@H]1CN2CCc3cc(OC)c(OC)cc3[C@@H]2C[C@@H]1C[C@H]1NCCc2c1[nH]c1ccc(O)cc21
inactive: endpoint: mean survival time, dose: 0.25 mg/kg/injection, schedule: Q01DX006 (ip), vehicle: saline 109 % of control | endpoint: mean survival time, dose: 0.5 mg/kg/injection, schedule: Q01DX006 (ip), vehicle: saline 117 % of control | endpoint: mean survival time, dose: 2.0 mg/kg/injection, schedule: Q01DX005 (ip), vehicle: saline 121 % of control | endpoint: mean survival time, dose: 4.0 mg/kg/injection, schedule: Q01DX005 (ip), vehicle: saline 108 % of control | endpoint: mean survival time, dose: 4.0 mg/kg/injection, schedule: Q04DX003 (ip), vehicle: saline 114 % of control | endpoint: mean survival time, dose: 125.0 micrograms/kg/injection, schedule: Q01DX009 (ip), vehicle: saline 108 % of control | endpoint: mean survival time, dose: 250.0 micrograms/kg/injection, schedule: Q01DX009 (ip), vehicle: saline 118 % of control | endpoint: mean survival time, dose: 500.0 micrograms/kg/injection, schedule: Q01DX009 (ip), vehicle: saline 120 % of control | endpoint: mean survival time, dose: 1000.0 micrograms/kg/injection, schedule: Q01DX009 (ip), vehicle: saline 109 % of control | endpoint: median survival time, dose: 1.0 mg/kg/injection, schedule: Q04DX003 (ip), vehicle: saline + alcohol 108 % of control | endpoint: median survival time, dose: 2.0 mg/kg/injection, schedule: Q04DX003 (ip), vehicle: saline + alcohol 118 % of control

CCCCCCCCCCCCOc1ccc(/C(=N\N=C(N)N)c2ccccc2)c(O)c1
inactive: endpoint: mean survival time, dose: 15.0 mg/kg/injection, schedule: Q01DX Z (ip), vehicle: saline 91 % of control | endpoint: mean survival time, dose: 30.0 mg/kg/injection, schedule: Q01DX Z (ip), vehicle: saline 89 % of control | endpoint: mean survival time, dose: 120.0 mg/kg/injection, schedule: Q01DX Z (ip), vehicle: saline 92 % of control | endpoint: mean survival time, dose: 120.0 mg/kg/injection, schedule: Q01DX Z (oral), vehicle: saline 102 % of control | endpoint: mean survival time, dose: 240.0 mg/kg/injection, schedule: Q01DX Z (ip), vehicle: saline 103 % of control | endpoint: mean survival time, dose: 240.0 mg/kg/injection, schedule: Q01DX Z (oral), vehicle: saline 102 % of control | endpoint: mean survival time, dose: 480.0 mg/kg/injection, schedule: Q01DX Z (ip), vehicle: saline 110 % of control | endpoint: mean survival time, dose: 480.0 mg/kg/injection, schedule: Q01DX Z (oral), vehicle: saline 95 % of control | endpoint: mean survival time, dose: 960.0 mg/kg/injection, schedule: Q01DX Z (oral), vehicle: saline 101 % of control

c1ccc2cc(C3OCC4(CCC4)CO3)ccc2c1
inactive: endpoint: mean survival time, dose: 100.0 mg/kg/injection, schedule: Q01DX001 (ip), vehicle: Klucel (hydroxypropylcellulose) (HPC) 94 % of control | endpoint: mean survival time, dose: 200.0 mg/kg/injection, schedule: Q01DX001 (ip), vehicle: Klucel (hydroxypropylcellulose) (HPC) 104 % of control | endpoint: mean survival time, dose: 400.0 mg/kg/injection, schedule: Q01DX001 (ip), vehicle: Klucel (hydroxypropylcellulose) (HPC) 104 % of control

CCc1ccccc1NC(=O)NCc1ccc(C)c(C)c1
inactive: endpoint: mean survival time, dose: 25.0 mg/kg/injection, schedule: Q01DX009 (ip), vehicle: Klucel (hydroxypropylcellulose) (HPC) 98 % of control | [6] 93 % of control | [7] 93 % of control | [9] 94 % of control | endpoint: mean survival time, dose: 400.0 mg/kg/injection, schedule: Q01DX009 (ip), vehicle: Klucel (hydroxypropylcellulose) (HPC) 98 % of control
